Assay results taken from patent US20100203110A1, “Therapeutics for Cancer Using 3-Bromopyruvate and Other Selective Inhibitors of ATP Production” (The Johns Hopkins University, priority 2006, published 2010).
“Also recorded” adds a separate entry of the source.

Columns and labels:
[1] = test system: liver implanted VX2 tumors; experiment: Single direct intraarterial bolus injection into liver implanted VX2 tumors, histology; type: in vivo, rabbit
Source text: The rabbit VX2 tumor was selected for implantation in the liver because of the similarities of its blood supply to that of human hepatomas. Other attributes of this tumor include rapid tumor growth, development of a sizable tumor that can be readily identified by x-ray imaging (fluoroscopy), and a biochemical phenotype characteristic of advanced stage tumors, i.e., high glycolysis and elevated levels of mitochondrial bound hexokinase. In addition, the rabbit is large enough that selective manipulation of catheters in the hepatic artery from the common femoral artery for delivery of agents is possible. Adult New Zealand white rabbits (32 total, Robinson Services, Inc.) weighing 3.5-4.2 kg were used. Studies with these animals were approved by the Johns Hopkins University Animal Care and Use Committee and carried out according to their guidelines. For successful implantation of the VX2 tumor into the liver, it was first grown for 2 weeks on the hind leg of a carrier rabbit. Each carrier rabbit was used to supply tumor cells for implantation into the left lobe of the liver of 2 separate rabbits. All animals, carriers and recipients, were anesthetized with a mixture of acepromazine (2.5 mg/kg) and ketamine hydrochloride (44 mg/kg) administered intramuscularly. Intravenous access was gained via a marginal ear vein and sodium pentothal was given intravenously to maintain anesthesia. The VX2 tumor was then excised from the carrier rabbit and placed in Hanks solution. Chunks of the tumor were minced in the same solution. Then, the abdomens of the recipient rabbits were shaved and prepped with betadine after which a midline subxyphoid incision was made. The anterior surface of the liver was exposed and tumor cells (0.1-0.2 ml) from the minced donor tumor were directly implanted onto the left lobe of the liver using the outer cannula of a 21-gauge angiocatheter. This method allows the growth of a single solitary, well-demarcated tumor in the liver of each recipient rabbit. The abdomen was closed in 2 layers. Proper aseptic technique was rigorously observed during each implantation. After surgery, animals were returned to their cages, kept warm with blankets, and monitored in the animal laboratory under the direct supervision of a physician or a technician until they recovered from anesthesia. […] The tumors were allowed to grow for another 14 days at which time they reached an ellipsoidal shape with dimension of approximately 1.5×1.8×2.5 cm.
The solutions of 3-bromopyruvate (3-BrPA, Sigma Chemical Co., St. Louis, Mo.) were prepared in phosphate-buffered saline (PBS). After adjusting the pH to 7.0 with NaOH the solutions were sterilized via Millipore's Millexâ GV 0.22 mm filter unit and used immediately. Freshly made solutions were used in all studies reported here.
Administration of anesthesia, intravenous access and sodium pentothal anesthesia were carried out as described in Example 12. Transcatheter hepatic artery injection of 3-BrPA was performed under fluoroscopy. The animals were brought to the angiography suite and intubated using a size 3.0 mm endotracheal tube (Mallinkrodt Medical, St. Louis, Mo.) but not ventilated. Surgical cut-down was performed to gain access into the right common femoral artery, after which a 3 French sheath (Cook Inc., Bloomington, Ind.) was placed. A specially manufactured 2 French catheter with a tip in the shape of a hockey-stick (JB1 catheter, Cook Inc., Bloomington, Ind.) was manipulated into the celiac axis after which a celiac arteriogram was performed in order to delineate the blood supply to the liver and confirm the location of the tumor. The tumor could readily be visualized as a region of hypervascular blush located on the left side of the liver near the gastric fundus. The left hepatic artery, which usually provides most of the blood flow to the tumor, was selectively catheterized via the common hepatic artery. […]

VX2 tumor = experiment: FDG uptake in orthotopic rabbit model of liver cancer, IA versus IV; type: in vivo
Method: To develop a new therapeutic strategy to cure patients with hepatocellular carcinoma, a similar series of experiments was conducted on the orthotopic rabbit model of liver cancer (VX2). The effects of 3-bromopyruvate injected intraarterially (IA) was compared to those of 3-bromopyruvate injected intravenously (N) on FDG uptake in the VX2 tumor. The optimal dose of 3-bromopyruvate for both IA and N administration was then determined through an extensive dose-response analysis. In the IA group, 3-bromopyruvate was infused over one hour, FDG injected at the 30-minute mark and all animals were then sacrificed one hour after the FDG injection. Tumors and all major organs were removed, weighed and analyzed in a gamma counter.

Vx-2 = experiment: ATP levels after treatment, Vx-2; type: cell-based, rabbit; settings: 0.1, 0.2, 0.3 mM for 1 and 3 hours
Method: ATP levels were measured in various cell lines, e.g., HepG2, Sk-Hep1, and Vx-2 after 3-bromopyruvate treatment. In each case, cells were treated with increasing concentration of 3-bromopyruvate (0.1 mM, 0.2 mM, and 0.3 mM) for 1 and 3 hours before measuring ATP levels in the cell. FIGS. 5 (A-C) show the ATP depletion observed following 3-bromopyruvate treatment in HepG2, Sk-Hep1, and Vx-2 cell lines, respectively.

[2] = Survival analysis, treatment versus control group (Kaplan-Meier); type: in vivo, rabbit; settings: 11 animals, control 18.6 days
Source text: FIG. 9 is a graph showing survival of untreated (control) versus 3-bromopyruvate treated animals.
The control group consisted of 10 animals and the treatment group consisted of 11 animals. The Kaplan-Meier method was used to estimate survival curves. […] The mean survival time in the control group is 18.6 days as compared to the treatment group, with 50.0 days.

[3] = Intravenous dose-escalation study in normal Lewis rats; type: in vivo, rat; settings: for therapeutic dose, intravenous: Lewis rats
Method: In order to determine the therapeutic dose of 3-bromopyruvate for intravenous (N) administration, a dose-escalation study was conducted in normal Lewis rats (non-tumor bearing). Each group of animals (6 rats per group) received incremental doses of 3-bromopyruvate intravenously (2.5 mL of 5, 10, 15, 20, 25 and 50 mM 3-bromopyruvate).

[4] = single intraarterial injection, 4 days
[5] = IA group, infused over one hour

For O=C(O)C(=O)CBr [3-bromopyruvate], which “damage to 9 major tissues” value ([1]; 4 days after single intraarterial injection) is on record?
Its value is “In no case was there evidence for damage”.

What about the “damage to portal veins, sinusoids, bile ducts and arteriolar complexes” value ([1]; much higher concentrations (5 mM), intraarterial) of the same compound?
The value was “only apparent damage occurring occasionally in the peribiliary arteriolar complexes”.

What about the “necrosis (non-viable cells) in tumor sections outside the central core” value ([1]; single IA bolus 25 ml 0.5 mM, 4 days) of the same compound?
The value was roughly 100%.

And the “total number of viable cells in liver implanted tumors, lowest reached” value ([1]; single injection)?
The value was 10%.

What about the “maximal number of non-viable cells observed in any one experiment” value ([1]; single intraarterial injection) of the same compound?
The value was 90%.

What about the “total number of non-viable cells in the tumor population” value [1, 4] of the same compound?
The value was 84±5%.

And the “viable cells in the entire tumor population” value [1, 4]?
Its value is 16±5%.

And the “viability / damage of surrounding liver tissue” value ([1]; single intraarterial injection, 4 days, listed as 3-BrPA)?
The value was “no damage; also recorded: remained completely viable”.

What about the “FDG uptake in any other organs” value (VX2 tumor; [5]) of the same compound?
The value was “No difference in uptake”.

And the “reduction of FDG uptake in the tumor” value (VX2 tumor; [5])?
The value was 80%.

What about the “FDG uptake in other organs” value (VX2 tumor; N (intravenous) group) of the same compound?
Its value is “decreases in FDG uptake were also recorded in the lung, brain and liver”.

And the “decrease of FDG uptake in the tumor” value (VX2 tumor; N (intravenous) group)?
Its value is 30%.

What about the ATP levels (Vx-2) of the same compound?
Its ATP levels is “ATP depletion”.

And the mean survival time [2]?
The mean survival time was 50.0 days.

What about the “organs by histopathologic analysis” value ([3]; 50 mM IV) of the same compound?
Its value is “normal”.

And the “therapeutic dose, intravenous” value ([3]; 2.5 mL IV, observed 3 weeks)?
The value was 20 mM.

And the “therapeutic dose, intravenous” value ([3]; IV)?
The value was 16.8 mg/kg.

And the tolerability ([3]; all doses lower than 20 mM IV)?
The tolerability was “well-tolerated and caused no deaths”.

What about the “clinical distress (appetite, urination, body weight)” value ([3]; doses lower than 20 mM IV) of the same compound?
The value was “no evidence of clinical distress”.

What about the “major organs at necropsy” value ([3]; doses lower than 20 mM IV) of the same compound?
The value was “without any damage”.

What about the mortality ([3]; highest dose of 50 mM IV) of the same compound?
Its mortality is “all the animals in the group died”.

What about the time to death ([3]; highest dose of 50 mM IV) of the same compound?
The time to death was no more than 15 min.
